Measured values taken from patent US12233061B2, “Microvascular angina” (THE UNIVERSITY COURT OF THE UNIVERSITY OF GLASGOW, priority 2019, dated 2025).
“Also recorded” adds a separate entry of the source. Where two headings read alike, the source gives them in different places. Where a SMILES comes first, the peptide text is derived from it.

Tests used:
[1] = system: small peripheral resistance vessels; test: Wire myography by rs9349379 genotype: vasodilator response to ACh; format: cell-based; conditions: Homo sapiens, 95% CI; for EC50: read-out: ACh pEC50 (converted)
resistance arteries [2] = test: Wire myography: relaxation to dilator agonists after preconstriction with U46619 (Example 2); format: cell-based, human; conditions: median; for IC50 / Emax: Homo sapiens; for Emax: read-out: Emax (maximum relaxation after preconstriction with U46619)
ETA receptor [3] = target: T1, ETA receptor (Homo sapiens, UniProt P25101); test: ET-1 cumulative concentration response curves after antagonist preincubation, Schild plot pA2 (Example 3); format: cell-based; conditions: microvessels pre-treated with antagonist
T1 construct: Small peripheral resistance vessels (<400 μm) were carefully dissected from fresh biopsies using a light microscope; from tissue; host or cells: small peripheral resistance arteries from gluteal skin fat biopsies of angina patients
T1 sequence (P25101 21-427): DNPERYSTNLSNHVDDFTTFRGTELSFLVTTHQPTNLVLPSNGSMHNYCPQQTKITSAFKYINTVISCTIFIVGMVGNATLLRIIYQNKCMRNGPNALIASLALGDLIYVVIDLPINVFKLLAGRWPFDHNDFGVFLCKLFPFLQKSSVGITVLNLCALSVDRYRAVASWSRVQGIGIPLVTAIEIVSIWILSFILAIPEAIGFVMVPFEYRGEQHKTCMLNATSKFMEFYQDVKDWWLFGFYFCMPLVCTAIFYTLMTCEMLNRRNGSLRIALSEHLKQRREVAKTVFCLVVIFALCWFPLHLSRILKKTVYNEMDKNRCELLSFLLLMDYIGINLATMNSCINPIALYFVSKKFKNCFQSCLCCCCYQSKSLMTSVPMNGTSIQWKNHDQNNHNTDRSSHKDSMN

ETA receptor [4] = target: T1, ETA receptor; test: Paired ET-1 CCRCs with and without ETA antagonist, pKB by Schild regression (Examples 4 and 5); format: cell-based; conditions: for Kb: pKB
Method: (§1) Ex vivo pharmacological assessment of peripheral vascular function was performed on patients who volunteered to undergo a gluteal skin fat biopsy within 4 weeks of the invasive coronary function assessment. The biopsy was obtained under sterile conditions using local anaesthesia with lidocaine (2%). Small peripheral resistance vessels (<400 μm) were carefully dissected from fresh biopsies using a light microscope. About 2 mm length vessels were mounted on 40-μm stainless steel wires for isometric myography in multi-channel myograph chambers (DMT, Denmark) filled with physiological saline solution. […] This vascular biology sub-study was an extension of our work in INOCA subjects that was previously published in this journal.^31A The detailed methods are described in the Supplementary material online, Appendix.
(§2) The peripheral vascular sensitivity to ET-1 (pEC50) and maximum vasoconstriction to ET-1 (Eumax) were determined. For the antagonist studies, the affinity (KB) of BQ123 was first determined in paired vessels from individuals and calculated using Schild regression. The pKB (−log10 KB) values were compared between each genotype as an indicator of whether or not patients of different genotypes are likely to respond equally well to an ETA antagonist used clinically.

[5] = system: small peripheral resistance vessels; test: Wire myography by rs9349379 genotype: vasoconstriction to ET-1; format: cell-based, human; conditions: 95% CI
Method: as §1, §2

resistance arteries [6] = test: Wire myography: contractile response to constrictor agonists, relative to KPSS (Example 2); format: cell-based, human; conditions: for Emax (percentage of maximum response to KPSS solution) / pEC50: median
[7] = system: human mammary resistance arteries; conditions: compared with bosentan; cited from earlier work
[8] = GTN half-life and remaining dose; conditions: human, in vivo, other: intra-arterial; after 10 min; read-out: share of the dose bioavailable
[9] = system: coronary microvascular endothelial function; conditions: 10 mg PO daily for 6 months; IC-ACh; cited from earlier work
[10] = subjects with low myocardial perfusion homogeneity; cited from earlier work
[11] = cited from earlier work
[12] = system: small peripheral resistance arteries; test: Reversal of an established ET-1-mediated vessel constriction, wire myography; format: cell-based, human; conditions: clinically relevant concentrations

CC(=O)OCC[N+](C)(C)C [ACh, Acetylcholine]
Emax ([1]; genotype AA): 77.7% | EC50 ([1]; genotype AA): 52.5 nM | Emax ([1]; genotype AG): 80.2% | EC50 ([1]; genotype AG): 55 nM | Emax ([1]; genotype GG): 92.5% | EC50 ([1]; genotype GG): 110 nM | IC50 (resistance arteries [2]; MVA patients): 79.4 nM | Emax (resistance arteries [2]; MVA patients): 77.6% | IC50 (resistance arteries [2]; VSA patients): 79.4 nM | Emax (resistance arteries [2]; VSA patients): 79% | IC50 (resistance arteries [2]; control subjects): 50.1 nM | Emax (resistance arteries [2]; control subjects): 98.7% | Emax (maximum relaxation after preconstriction with U46619) (resistance arteries [2]; control subjects): 98%

CC(C)C[C@@H]1NC(=O)[C@@H](C(C)C)NC(=O)[C@@H]2CCCN2C(=O)[C@@H](CC(=O)O)NC(=O)[C@@H](Cc2c[nH]c3ccccc23)NC1=O [BQ123] (HELM PEPTIDE1{L.[dW].[dD].P.[dV]}$PEPTIDE1,PEPTIDE1,1:R1-5:R2$$$V2.0)
effect on the ET-1 constrictor response (shift of ET-1 CCRC) (ETA receptor [3]): also inhibits the ET-1 response; also recorded: an effect comparable to that of zibotentan | effect on the ET-1 CCRC and constrictor responses (ETA receptor [4]; all genotype groups): parallel rightward shift of the CCRC to ET-1 in all arteries; also recorded: fully blocked the constrictor responses in all of the groups | Kb (ETA receptor [4]; all genotypes pooled, mean (95% CI)): 29.5 nM | Kb (ETA receptor [4]; rs9349379 genotype AA, ±SEM): 85.1 nM | Kb (ETA receptor [4]; rs9349379 genotype AG, ±SEM): 16.2 nM | Kb (ETA receptor [4]; rs9349379 genotype GG, ±SEM): 38.9 nM

CCCC[C@@H](NC(=O)[C@@H](Cc1cn(C(=O)OC)c2ccccc12)NC(=O)[C@H](CC(C)(C)C)NC(=O)N1[C@H](C)CCC[C@@H]1C)C(=O)O [BQ788]
effect on the ET-1 constrictor response (shift of ET-1 CCRC) (ETA receptor [3]): only minimal shift in the ET-1 response; also recorded: negligible effect on the ET-1 constrictor response

CC[C@H](C)[C@H](NC(=O)[C@H](CC(=O)O)NC(=O)[C@H](CC(C)C)NC(=O)[C@H](Cc1c[nH]cn1)NC(=O)[C@@H]1CSSC[C@H](N)C(=O)N[C@@H](CO)C(=O)N[C@H]2CSSC[C@H](NC(=O)[C@H](CCC(=O)O)NC(=O)[C@H](CCCCN)NC(=O)[C@H](CC(=O)O)NC(=O)[C@H](CCSC)NC(=O)[C@H](CC(C)C)NC(=O)[C@H](CO)NC(=O)[C@H](CO)NC2=O)C(=O)N[C@@H](C(C)C)C(=O)N[C@@H](Cc2ccc(O)cc2)C(=O)N[C@@H](Cc2ccccc2)C(=O)N1)C(=O)N[C@H](C(=O)N[C@@H](Cc1c[nH]c2ccccc12)C(=O)O)[C@@H](C)CC [ET-1]
ET-1 Emax (maximum vasoconstriction) ([5]; genotype AA): 122.3% | ET-1 pEC50 ([5]; genotype AA): 9.34 | ET-1 Emax (maximum vasoconstriction) ([5]; genotype AG): 115.5% | ET-1 pEC50 ([5]; genotype AG): 9.45 | ET-1 Emax (maximum vasoconstriction) ([5]; genotype GG): 129.7% | ET-1 pEC50 ([5]; genotype GG): 9.32 | Emax (percentage of maximum response to KPSS solution) (resistance arteries [6]; MVA patients): 121% | pEC50 (resistance arteries [6]; MVA patients): 9.6 | Emax (percentage of maximum response to KPSS solution) (resistance arteries [6]; VSA patients): 125% | pEC50 (resistance arteries [6]; VSA patients): 9.5 | sensitivity of resistance arteries to constrictor effects of ET-1 compared with U46619 (resistance arteries [6]; all groups): around 50 fold | Emax (percentage of maximum response to KPSS solution) (resistance arteries [6]; control subjects): 100% | pEC50 (resistance arteries [6]; control subjects): 9.3

CC(C)C[C@H](NC(=O)N1CCCCCC1)C(=O)N[C@H](Cc1cn(C)c2ccccc12)C(=O)N[C@H](Cc1ccccn1)C(=O)O [FR139317]
blocking of ET-1 induced contractions [7]: less effective than the dual ETAR/ETBR antagonist bosentan

O=[N+]([O-])OCC(CO[N+](=O)[O-])O[N+](=O)[O-] [GTN, glyceryl trinitrate]
bioavailability at 10 min [8]: 3%

CCCCC[C@H](O)/C=C/[C@@H]1[C@@H](C/C=C\CCCC(=O)O)[C@H]2CO[C@@H]1C2 [U46619]
Emax (percentage of maximum response to KPSS solution) (resistance arteries [6]; MVA patients): 143% | pEC50 (resistance arteries [6]; MVA patients): 8.0 | Emax (percentage of maximum response to KPSS solution) (resistance arteries [6]; VSA patients): 141% | pEC50 (resistance arteries [6]; VSA patients): 7.5 | Emax (percentage of maximum response to KPSS solution) (resistance arteries [6]; control subjects): 109% | pEC50 (resistance arteries [6]; control subjects): 7.50

CCCCN(CCCC)C(=O)CN1C[C@H](c2ccc3c(c2)OCO3)[C@@H](C(=O)O)[C@@H]1c1ccc(OC)cc1 [atrasentan]
coronary microvascular endothelial function [9]: improved coronary microvascular endothelial function

COc1cc(OC)nc(O[C@H](C(=O)O)C(OC)(c2ccccc2)c2ccccc2)n1 [darusentan]
flow homogeneity [10]: increases flow homogeneity

Cc1cc2c(cc1CC(=O)c1sccc1S(=O)(=O)Nc1onc(C)c1Cl)OCO2 [sitaxentan]
exercise time ([11]; HFpEF patients, compared to placebo): increase in exercise time compared to placebo | hepatotoxicity ([11]; in vivo): withdrawn from development owing to hepatotoxicity

COc1nc(C)cnc1NS(=O)(=O)c1cccnc1-c1ccc(-c2nnco2)cc1 [zibotentan, N-(3-Methoxy-5-methylpyrazin-2-yl)-2-[4-(1,3,4-oxadiazol-2-yl)phenyl]pyridine-3-sulfonamide]
reversal or inhibition of an established constrictor response to ET-1 [12]: concentration-dependent inhibition of an established constrictor response to ET-1; also recorded: fully reversed an established endothelin-1 vasoconstriction | reversal or inhibition of an established constrictor response to ET-1 ([12]; listed as Zibotentan): concentration-dependent inhibition of an established constrictor response to ET-1; also recorded: reversed ET-1-induced vasoconstriction independently of G allele status; also recorded: reversed an established ET-1-mediated vasoconstriction; also recorded: rapidly and fully reversed the established endothelin-1 constrictor response
